Reference: patent publication US11213031B2, “Tetrazolylpropyl derivatives and their use as fungicides” (BAYER AKTIENGESELLSCHAFT, priority 2017, dated 2022)
Like-named read-outs stand apart in the source and are kept apart here.

Legend:
[1] = Log P by HPLC on reversed phase columns (EEC directive 79/831 Annex V.A8); type: physicochemical
Method: Measurement of Log P values was performed according to EEC directive 79/831 Annex V.A8 by HPLC (High Performance Liquid Chromatography) on reversed phase columns with the following methods: • ^[a]Log P value is determined by measurement of LC-UV, in an acidic range, with 0.1% formic acid in water and acetonitrile as eluent (linear gradient from 10% acetonitrile to 95% acetonitrile). • ^[b]Log P value is determined by measurement of LC-UV, in a neutral range, with 0.001 molar ammonium acetate solution in water and acetonitrile as eluent (linear gradient from 10% acetonitrile to 95% acetonitrile). • ^[c]Log P value is determined by measurement of LC-UV, in an acidic range, with 0.1% phosphoric acid and acetonitrile as eluent (linear gradient from 10% acetonitrile to 95% acetonitrile).
If more than one Log P value is available within the same method, all the values are given and separated by “+”.
Calibration was done with straight-chain alkan2-ones (with 3 to 16 carbon atoms) with known Log P values (measurement of Log P values using retention times with linear interpolation between successive alkanones). Lambda-max-values were determined using UV-spectra from 200 nm to 400 nm and the peak values of the chromatographic signals.

Uromyces appendiculatus = assay: In vivo preventive test on Uromyces appendiculatus (bean rust); details: 264 h, 500 ppm of active ingredient, bean plants sprayed 24 hours before inoculation, evaluated 11 days after inoculation, read-out: efficacy
Method: (§1) Solvent: 5% by volume of Dimethyl sulfoxide • 10% by volume of Acetone
(§2) Emulsifier: 1 μl of Tween® 80 per mg of active ingredient
(§3) The active ingredients were made soluble and homogenized in a mixture of Dimethyl sulfoxide/Acetone/Tween® 80 and then diluted in water to the desired concentration.
The young plants of bean were treated by spraying the active ingredient prepared as described above. Control plants were treated only with an aqueous solution of Acetone/Dimethyl sulfoxide/Tween® 80.
After 24 hours, the plants were contaminated by spraying the leaves with an aqueous suspension of Uromyces appendiculatus spores. The contaminated bean plants were incubated for 24 hours at 20° C. and at 100% relative humidity and then for 10 days at 20° C. and at 70-80% relative humidity.
The test was evaluated 11 days after the inoculation. 0% means an efficacy which corresponds to that of the control plants while an efficacy of 100% means that no disease was observed.

Sphaerotheca fuliginea = assay: In vivo preventive test on Sphaerotheca fuliginea (powdery mildew on cucurbits); details: Podosphaera fuliginea, 192 h; 500 ppm of active ingredient; gherkin plants sprayed 24 hours before inoculation; evaluated 8 days after inoculation; read-out: efficacy
Method: as §1, §2, §3
The young plants of gherkin were treated by spraying the active ingredient prepared as described above. Control plants were treated only with an aqueous solution of Acetone/Dimethyl sulfoxide/Tween® 80.
After 24 hours, the plants were contaminated by spraying the leaves with an aqueous suspension of Sphaerotheca fuliginea spores. The contaminated gherkin plants were incubated for 8 days at 20° C. and at 70-80% relative humidity.
The test was evaluated 8 days after the inoculation. 0% means an efficacy which corresponds to that of the control plants while an efficacy of 100% means that no disease was observed.

Septoria tritici = assay: In vivo preventive test on Septoria tritici (leaf spot on wheat); details: Zymoseptoria tritici, 456 h; 500 ppm of active ingredient; wheat plants sprayed 24 hours before inoculation; evaluated 19 days after inoculation; read-out: efficacy
Method: as §1, §2, §3
The young plants of wheat were treated by spraying the active ingredient prepared as described above. Control plants were treated only with an aqueous solution of Acetone/Dimethyl sulfoxide/Tween® 80.
After 24 hours, the plants were contaminated by spraying the leaves with an aqueous suspension of Septoria tritici spores. The contaminated wheat plants were incubated for 72 hours at 17° C. and at 100% relative humidity and then for 15 days at 20° C. and at 90% relative humidity.
The test was evaluated 19 days after the inoculation. 0% means an efficacy which corresponds to that of the control plants while an efficacy of 100% means that no disease was observed.

[2] = method [a]: LC-UV, acidic range, 0.1% formic acid in water and acetonitrile as eluent

## CC(c1ccccc1F)C(O)(Cn1cnnn1)C1(Cl)CC1 (single isomer, unassigned) [Ia-20, 2-(1-chlorocyclopropyl)-3-(2-fluorophenyl)-1-(tetrazol-1-yl)butan-2-ol]
[1]; [2]
  chromatographic logP: 2.61
Uromyces appendiculatus
  pest or weed control at 500 ppm: 90 to 100%
Sphaerotheca fuliginea
  pest or weed control at 500 ppm: 90 to 100%

## CC(c1ccccc1F)C(O)(Cn1cnnn1)C1(Cl)CC1 (single isomer, unassigned) [Ia-22, 2-(1-chlorocyclopropyl)-3-(2-fluorophenyl)-1-(tetrazol-1-yl)butan-2-ol]
[1]; [2]
  LogP: 2.80^[a]
Septoria tritici
  pest or weed control at 500 ppm: 90 to 100%

## OC(Cc1ccccc1)(Cn1cnnn1)C1(Cl)CC1 (stereo not drawn) [Ia-01, 2-(1-chlorocyclopropyl)-1-phenyl-3-(tetrazol-1-yl)propan-2-ol]
[1]; [2]
  chromatographic logP: 2.41
Uromyces appendiculatus
  pest or weed control at 500 ppm: 90 to 100%
Septoria tritici
  pest or weed control at 500 ppm: 70 to 79%
Sphaerotheca fuliginea
  pest or weed control at 500 ppm: 90 to 100%

## OC(Cc1cccnc1Cl)(Cn1cnnn1)C1(Cl)CC1 (stereo not drawn) [Ia-03, 2-(1-chlorocyclopropyl)-1-(2-chloro-3-pyridyl)-3-(tetrazol-1-yl)propan-2-ol]
[1]; [2]
  chromatographic logP: 1.72
[1]; method [b]: LC-UV, neutral range, 0.001 molar ammonium acetate solution in water and acetonitrile as eluent
  chromatographic logP: 1.68
Uromyces appendiculatus
  pest or weed control at 500 ppm: 90 to 100%
Septoria tritici
  pest or weed control at 500 ppm: 90 to 100%
Sphaerotheca fuliginea
  pest or weed control at 500 ppm: 90 to 100%

## OC(Cc1ccccc1F)(Cn1cnnn1)C1(Cl)CC1 (stereo not drawn) [Ia-04, 2-(1-chlorocyclopropyl)-1-(2-fluorophenyl)-3-(tetrazol-1-yl)propan-2-ol]
[1]; [2]
  chromatographic logP: 2.46
Uromyces appendiculatus
  pest or weed control at 500 ppm: 90 to 100%
Septoria tritici
  pest or weed control at 500 ppm: 90 to 100%
Sphaerotheca fuliginea
  pest or weed control at 500 ppm: 90 to 100%

## OC(Cc1ccccc1Cl)(Cn1cnnn1)C1(Cl)CC1 (stereo not drawn) [Ia-05, 2-(1-chlorocyclopropyl)-1-(2-chlorophenyl)-3-(tetrazol-1-yl)propan-2-ol]
[1]; [2]
  chromatographic logP: 2.65
Uromyces appendiculatus
  pest or weed control at 500 ppm: 90 to 100%
Septoria tritici
  pest or weed control at 500 ppm: 90 to 100%
Sphaerotheca fuliginea
  pest or weed control at 500 ppm: 90 to 100%

## C=C(c1ccccc1F)C(O)(Cn1cnnn1)C1(Cl)CC1 (stereo not drawn) [Ia-en-02, 2-(1-chlorocyclopropyl)-3-(2-fluorophenyl)-1-(tetrazol-1-yl)but-3-en-2-ol]
[1]; [2]
  chromatographic logP: 2.46
Uromyces appendiculatus
  pest or weed control at 500 ppm: 90 to 100%
Septoria tritici
  pest or weed control at 500 ppm: 90 to 100%
Sphaerotheca fuliginea
  pest or weed control at 500 ppm: 90 to 100%

## OC(Cc1ccccc1F)(Cn1ncnn1)C1(Cl)CC1 (stereo not drawn) [Ib-02, 2-(1-chlorocyclopropyl)-1-(2-fluorophenyl)-3-(tetrazol-2-yl)propan-2-ol]
[1]; [2]
  chromatographic logP: 2.86
Uromyces appendiculatus
  pest or weed control at 500 ppm: 90 to 100%
Septoria tritici
  pest or weed control at 500 ppm: 90 to 100%
Sphaerotheca fuliginea
  pest or weed control at 500 ppm: 90 to 100%

## OC(Cc1cccnc1Cl)(Cn1ncnn1)C1(Cl)CC1 (stereo not drawn) [Ib-05, 2-(1-chlorocyclopropyl)-1-(2-chloro-3-pyridyl)-3-(tetrazol-2-yl)propan-2-ol]
[1]; [2]
  chromatographic logP: 2.03
Uromyces appendiculatus
  pest or weed control at 500 ppm: 70 to 79%
Septoria tritici
  pest or weed control at 500 ppm: 90 to 100%
Sphaerotheca fuliginea
  pest or weed control at 500 ppm: 90 to 100%

## OC(Cc1cc(F)c(F)cc1F)(Cn1ncnn1)C1(Cl)CC1 (stereo not drawn) [Ib-16]
[1]
  LogP: 3.09^[a]

## OC(Cc1ccc(F)cc1F)(Cn1ncnn1)C1(Cl)CC1 (stereo not drawn) [Ib-17]
[1]
  LogP: 2.96^[a]

## OC(Cc1ccc(F)c(Cl)c1)(Cn1ncnn1)C1(Cl)CC1 (stereo not drawn) [Ib-18]
[1]
  LogP: 3.33^[a]

## OC(Cc1c(F)ccc(F)c1F)(Cn1ncnn1)C1(Cl)CC1 (stereo not drawn) [Ib-19]
[1]
  LogP: 3.02^[a]

## COc1ccc(F)c(CC(O)(Cn2ncnn2)C2(Cl)CC2)c1F (stereo not drawn) [Ib-20]
[1]
  LogP: 2.86^[a]

## Cc1ccc(CC(O)(Cn2ncnn2)C2(Cl)CC2)c(F)c1F (stereo not drawn) [Ib-21]
[1]
  LogP: 3.33^[a]

## OC(Cc1ccncc1Cl)(Cn1ncnn1)C1(Cl)CC1 (stereo not drawn) [Ib-22]
[1]
  LogP: 1.96^[b]

## OC(Cc1cncc(F)c1)(Cn1ncnn1)C1(Cl)CC1 (stereo not drawn) [Ib-23]
[1]
  LogP: 1.76^[a]

## OC(Cc1ccc(F)c(F)c1)(Cn1ncnn1)C1(Cl)CC1 (stereo not drawn) [Ib-24]
[1]
  LogP: 3.04^[a]

## OC(Cc1cccnc1F)(Cn1ncnn1)C1(Cl)CC1 (stereo not drawn) [Ib-25]
[1]
  LogP: 1.91^[a]

## C=C(c1ccccc1F)C(O)(Cn1ncnn1)C1(Cl)CC1 (stereo not drawn) [Ib-en-01]
[1]
  LogP: 2.96^[a]

## O=C(Cn1cnnn1)C1(Cl)CC1 [XVIa-01, 1-(1-chlorocyclopropyl)-2-(tetrazol-1-yl)ethanone]
[1]; [2]
  chromatographic logP: 0.99

## CC1(C(=O)Cn2cnnn2)CC1 [XVIa-02]
[1]
  LogP: 0.79^[a]

## O=C(Cn1cnnn1)C1(F)CC1 [XVIa-03]
[1]
  LogP: 0.59^[a]

## O=C(Cn1ncnn1)C1(Cl)CC1 [XVIb-01, 1-(1-chlorocyclopropyl)-2-(tetrazol-2-yl)ethanone]
[1]; [2]
  chromatographic logP: 1.3

## CC1(C(=O)Cn2ncnn2)CC1 [XVIb-02]
[1]
  LogP: 1.05^[a]

## O=C(Cn1ncnn1)C1(F)CC1 [XVIb-03]
[1]
  LogP: 0.86^[a]
